# Measured values taken from PMC4233638, “Proanthocyanidin synthesis in Theobroma cacao: genes encoding anthocyanidin synthase, anthocyanidin reductase, and leucoanthocyanidin reductase” (BMC Plant Biology, 2013).
# Molecular target: T1, TcLAR (Theobroma cacao, UniProt D3XFG4)
# T1 construct: gene LAR; full-length ORF (361 residues, 1,083 bp) in pET-21a, C-terminal 6xHis tag kept, E. coli Rosetta (DE3), purified by Magne-His
# Assay: HPLC-UV and radioactivity detection of catechin product
# Type: biochemical
# Conditions: labelled compound (3H); 0.4 mM substrate, 0.5 mM NADPH, 100 mM potassium phosphate pH 7.0, 4 mM DTT, 10% glycerol, 30 C, 1 h
# T1 sequence (D3XFG4 entry or part of it): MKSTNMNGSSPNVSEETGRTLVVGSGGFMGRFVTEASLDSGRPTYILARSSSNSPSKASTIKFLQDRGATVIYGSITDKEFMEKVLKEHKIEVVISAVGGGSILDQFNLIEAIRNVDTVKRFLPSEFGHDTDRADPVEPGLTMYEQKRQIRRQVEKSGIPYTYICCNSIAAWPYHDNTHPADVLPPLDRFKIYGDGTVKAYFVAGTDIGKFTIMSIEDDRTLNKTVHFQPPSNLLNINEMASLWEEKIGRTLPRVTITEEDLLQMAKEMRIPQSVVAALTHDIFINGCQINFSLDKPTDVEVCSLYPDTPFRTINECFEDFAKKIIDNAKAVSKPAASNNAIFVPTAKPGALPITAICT
smiles,measurement,value
Oc1cc(O)c2c(c1)O[C@H](c1ccc(O)c(O)c1)[C@@H](O)[C@H]2O [leucocyanidin],HPLC-UV and radioactivity detection of catechin product,detected when TcLAR protein was incubated with ^3H -labeled leucocyanidin
